According to the NIST ThermoML archive (doi:10.1021/je060271a):
Several values for one entry are separate records, joined by “and”; a condition that tells them apart may be missing. Equal values may be shown once.

Settings: Liquid, Vibrating tube method

CCCCCC(=O)OCC(COC(=O)CCCCC)(COC(=O)CCCCC)COC(=O)CCCCC [pentaerythritol tetrahexanoate]
Settings	mass density
303.16 K, 25121 kPa	1003.6 kg/m3
303.16 K, 25156 kPa	1003.5 kg/m3
303.16 K, 25186 kPa	1003.6 kg/m3
303.16 K, 25221 kPa	1003.6 kg/m3
303.16 K, 25252 kPa	1003.7 kg/m3
303.16 K, 25282 kPa	1003.6 kg/m3
303.16 K, 25674 kPa	1003.8 kg/m3
303.16 K, 25700 kPa	1003.9 kg/m3
303.16 K, 25725 kPa	1003.8 kg/m3
303.16 K, 25756 kPa	1003.9 kg/m3
303.16 K, 25781 kPa	1004 kg/m3
303.16 K, 25807 kPa	1003.9 kg/m3
303.16 K, 25838 kPa	1004 kg/m3
303.16 K, 25863 kPa	1004 kg/m3
303.16 K, 25889 kPa	1004 kg/m3
303.16 K, 28629 kPa	1005.5 kg/m3
303.16 K, 28934 kPa	1005.7 kg/m3
303.16 K, 28965 kPa	1005.6 kg/m3
303.16 K, 28991 kPa	1005.6 kg/m3
303.16 K, 29017 kPa	1005.6 kg/m3
303.16 K, 29049 kPa	1005.7 kg/m3
303.16 K, 29076 kPa	1005.7 kg/m3
303.16 K, 29102 kPa	1005.7 kg/m3
303.16 K, 29134 kPa	1005.8 kg/m3
303.16 K, 29162 kPa	1005.6 kg/m3
303.16 K, 29189 kPa	1005.7 kg/m3
303.16 K, 29220 kPa	1005.8 kg/m3
303.16 K, 29244 kPa	1005.8 kg/m3
303.16 K, 29266 kPa	1005.9 kg/m3
303.16 K, 29288 kPa	1005.9 kg/m3
303.16 K, 29315 kPa	1005.9 kg/m3
303.16 K, 29338 kPa	1005.9 kg/m3
303.16 K, 29360 kPa	1005.9 kg/m3
303.16 K, 29388 kPa	1005.8 kg/m3
303.16 K, 29410 kPa	1006 kg/m3
303.16 K, 29438 kPa	1005.9 kg/m3
303.16 K, 30312 kPa	1006.3 kg/m3
303.16 K, 30341 kPa	1006.5 kg/m3
303.16 K, 30365 kPa	1006.5 kg/m3
303.16 K, 30389 kPa	1006.5 kg/m3
303.16 K, 30419 kPa	1006.6 kg/m3
303.16 K, 30445 kPa	1006.4 kg/m3
303.16 K, 30470 kPa	1006.4 kg/m3
303.16 K, 30494 kPa	1006.6 kg/m3
303.16 K, 30523 kPa	1006.6 kg/m3
303.16 K, 30548 kPa	1006.6 kg/m3
303.16 K, 30572 kPa	1006.6 kg/m3
303.16 K, 30602 kPa	1006.5 kg/m3
303.16 K, 30627 kPa	1006.6 kg/m3
303.16 K, 30652 kPa	1006.6 kg/m3
303.16 K, 30681 kPa	1006.5 kg/m3
303.16 K, 30706 kPa	1006.7 kg/m3
303.16 K, 30731 kPa	1006.5 kg/m3
303.16 K, 30761 kPa	1006.7 kg/m3
303.16 K, 30788 kPa	1006.6 kg/m3
303.16 K, 30813 kPa	1006.6 kg/m3
303.16 K, 30838 kPa	1006.7 kg/m3
303.16 K, 30868 kPa	1006.7 kg/m3
303.16 K, 30893 kPa	1006.6 kg/m3
303.16 K, 30923 kPa	1006.7 kg/m3
303.16 K, 30949 kPa	1006.7 kg/m3
303.16 K, 30974 kPa	1006.7 kg/m3
303.16 K, 31005 kPa	1006.9 kg/m3
303.16 K, 31031 kPa	1006.7 kg/m3
303.16 K, 31057 kPa	1006.7 kg/m3
303.16 K, 31087 kPa	1006.8 kg/m3
303.16 K, 31114 kPa	1006.8 kg/m3
303.16 K, 31140 kPa	1006.9 kg/m3
303.16 K, 32264 kPa	1007.5 kg/m3
303.16 K, 32284 kPa	1007.6 kg/m3
303.16 K, 32306 kPa	1007.5 kg/m3
303.16 K, 32325 kPa	1007.5 kg/m3
303.16 K, 32343 kPa	1007.5 kg/m3
303.16 K, 32366 kPa	1007.5 kg/m3
303.16 K, 32385 kPa	1007.4 kg/m3
303.16 K, 32914 kPa	1007.8 kg/m3
303.16 K, 32937 kPa	1007.9 kg/m3
303.16 K, 32956 kPa	1007.7 kg/m3
303.16 K, 32976 kPa	1007.7 kg/m3
303.16 K, 33185 kPa	1007.9 kg/m3
303.16 K, 33209 kPa	1008 kg/m3
303.16 K, 33228 kPa	1008 kg/m3
303.16 K, 33252 kPa	1007.9 kg/m3
303.16 K, 33272 kPa	1008.1 kg/m3
303.16 K, 33292 kPa	1008 kg/m3
303.16 K, 33317 kPa	1007.9 kg/m3
303.16 K, 33337 kPa	1008.1 kg/m3
303.16 K, 33357 kPa	1008.1 kg/m3
303.16 K, 33377 kPa	1008.1 kg/m3
303.16 K, 33402 kPa	1008.1 kg/m3
303.16 K, 33423 kPa	1008 kg/m3
303.16 K, 33443 kPa	1008.1 kg/m3
303.16 K, 33467 kPa	1008.1 kg/m3
303.16 K, 33487 kPa	1008.1 kg/m3
303.16 K, 33512 kPa	1008.1 kg/m3
303.16 K, 33533 kPa	1008.1 kg/m3
303.16 K, 33553 kPa	1008.1 kg/m3
303.16 K, 33574 kPa	1008.3 kg/m3
303.16 K, 33599 kPa	1008.2 kg/m3
303.16 K, 33621 kPa	1008.2 kg/m3
303.16 K, 33642 kPa	1008.3 kg/m3
303.16 K, 33668 kPa	1008.3 kg/m3
303.16 K, 33689 kPa	1008.3 kg/m3
303.16 K, 33711 kPa	1008.2 kg/m3
303.16 K, 33733 kPa	1008.1 kg/m3
303.16 K, 33759 kPa	1008.2 kg/m3
303.16 K, 33782 kPa	1008.3 kg/m3
303.16 K, 33805 kPa	1008.2 kg/m3
303.16 K, 33833 kPa	1008.2 kg/m3
303.16 K, 33857 kPa	1008.4 kg/m3
303.16 K, 33886 kPa	1008.2 kg/m3
303.17 K, 238.4 kPa	988.6 kg/m3
303.17 K, 238.6 kPa	988.5 kg/m3
303.17 K, 239.1 kPa	988.5 kg/m3
303.17 K, 272.8 kPa	988.5 kg/m3
303.17 K, 273 kPa	988.7 kg/m3
303.17 K, 273.3 kPa	988.6 kg/m3
303.17 K, 273.5 kPa	988.6 kg/m3
303.17 K, 273.6 kPa	988.6 kg/m3
303.17 K, 355.5 kPa	988.6 kg/m3
303.17 K, 355.8 kPa	988.5 kg/m3
303.17 K, 356.5 kPa	988.6 kg/m3
303.17 K, 356.8 kPa	988.5 kg/m3
303.17 K, 357.2 kPa	988.6 kg/m3
303.17 K, 357.5 kPa	988.6 kg/m3
303.17 K, 361 kPa	988.7 kg/m3
303.17 K, 361.7 kPa	988.5 kg/m3
303.17 K, 362 kPa	988.6 kg/m3
303.17 K, 362.4 kPa	988.5 kg/m3
303.17 K, 362.7 kPa	988.6 kg/m3
303.17 K, 363.1 kPa	988.6 kg/m3
303.17 K, 363.8 kPa	988.7 kg/m3
303.17 K, 364 kPa	988.7 kg/m3
303.17 K, 375.4 kPa	988.5 kg/m3
303.17 K, 376.3 kPa	988.6 kg/m3
303.17 K, 376.5 kPa	988.7 kg/m3 and 988.6 kg/m3
303.17 K, 377.2 kPa	988.6 kg/m3
303.17 K, 378.5 kPa	988.6 kg/m3
303.17 K, 1469.1 kPa	989.4 kg/m3
303.17 K, 1484.4 kPa	989.2 kg/m3
303.17 K, 1497.4 kPa	989.2 kg/m3
303.17 K, 1510.5 kPa	989.4 kg/m3
303.17 K, 1526.6 kPa	989.4 kg/m3
303.17 K, 1540 kPa	989.3 kg/m3
303.17 K, 1553.5 kPa	989.4 kg/m3
